# Biological target: T1, human TRPV4 (Homo sapiens, UniProt Q9HBA0)
# T1 construct: expressed in transfected cells
# Test: Fluorometric cell-based Ca2+ flux assay, HEK-293 cells stably overexpressing human TRPV4
# Conditions: HEK-293 stably overexpressing human TRPV4; agonist GSK1016790A 30 nM
# In short: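 HEK-293 cells stably overexpressing human TRPV4, Fluo 4-loaded, pre-incubated 30 min at 37° C with compound, then stimulated with 30 nM GSK1016790A (final). Max ΔF/s over 1 min, media-corrected, expressed relative to no-antagonist control; IC50 from ≥8 concentrations, ≥3 replicates.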
# T1 sequence (Q9HBA0 whole entry): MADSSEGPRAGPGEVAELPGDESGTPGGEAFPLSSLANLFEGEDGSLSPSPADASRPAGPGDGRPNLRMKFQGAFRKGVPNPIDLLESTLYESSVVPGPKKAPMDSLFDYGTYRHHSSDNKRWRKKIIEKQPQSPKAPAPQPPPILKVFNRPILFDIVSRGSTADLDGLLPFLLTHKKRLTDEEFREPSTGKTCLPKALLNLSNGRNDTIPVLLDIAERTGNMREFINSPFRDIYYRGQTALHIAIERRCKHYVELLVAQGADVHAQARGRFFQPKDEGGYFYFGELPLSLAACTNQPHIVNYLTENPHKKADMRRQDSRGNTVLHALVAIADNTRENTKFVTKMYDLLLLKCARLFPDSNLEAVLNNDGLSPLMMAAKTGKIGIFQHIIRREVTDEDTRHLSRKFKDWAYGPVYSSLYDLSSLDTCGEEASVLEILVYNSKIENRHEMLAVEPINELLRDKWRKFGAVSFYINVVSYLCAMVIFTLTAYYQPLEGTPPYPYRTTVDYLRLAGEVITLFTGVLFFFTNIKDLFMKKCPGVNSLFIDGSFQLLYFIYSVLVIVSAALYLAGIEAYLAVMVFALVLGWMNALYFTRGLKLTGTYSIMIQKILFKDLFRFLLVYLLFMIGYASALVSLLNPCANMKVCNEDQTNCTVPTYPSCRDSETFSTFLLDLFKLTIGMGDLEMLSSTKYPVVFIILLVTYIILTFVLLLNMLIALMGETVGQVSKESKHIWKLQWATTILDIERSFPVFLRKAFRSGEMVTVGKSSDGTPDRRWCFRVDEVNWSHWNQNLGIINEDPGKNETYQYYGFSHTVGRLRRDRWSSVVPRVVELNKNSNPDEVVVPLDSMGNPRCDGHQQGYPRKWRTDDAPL
row,IC50 [nM],Structure (SMILES)
1,22.3,"N#Cc1ccc(OCC2(CO)CN(S(=O)(=O)c3ccc(C(F)(F)F)cc3C#N)C2)cc1F [Compound 86, 4-((1-((2-Cyano-4-(trifluoromethyl)phenyl)sulfonyl)-3-(hydroxymethyl)azetidin-3-yl)methoxy)-2-fluorobenzonitrile]"
2,1000 to 3000,"O=S(=O)(c1ccc(Cl)cc1Cl)N1CC(CO)(COc2ccc(F)c(F)c2)C1 [Compound 87, (1-((2,4-Dichlorophenyl)sulfonyl)-3-((3,4-difluorophenoxy)methyl)azetidin-3-yl)methanol]"
3,67.2,"COc1cc(C#N)ccc1OCC1(CO)CN(S(=O)(=O)c2ccc(Cl)cc2Cl)C1 [Compound 98, 4-((1-((2,4-Dichlorophenyl)sulfonyl)-3-(hydroxymethyl)azetidin-3-yl)methoxy)-3-methoxybenzonitrile]"
4,> 1000,"CCOc1cc(OCC2(CO)CN(S(=O)(=O)c3ccc(Cl)cc3Cl)C2)ccc1C#N [Compound 100, 4-((1-((2,4-Dichlorophenyl)sulfonyl)-3-(hydroxymethyl)azetidin-3-yl)methoxy)-2-ethoxybenzonitrile]"
5,231,"COc1ccc(S(=O)(=O)N2CC(CO)(COc3ccc(C#N)c(F)c3)C2)c(Br)c1 [Compound 102, 4-((1-((2-Bromo-4-methoxyphenyl)sulfonyl)-3-(hydroxymethyl)azetidin-3-yl)methoxy)-2-fluorobenzonitrile]"
6,14.7,"Cc1ccc(S(=O)(=O)N2CC(CO)(COc3ccc(C#N)c(F)c3)C2)c(C#N)c1 [Compound 103, 4-((1-((2-Cyano-4-methylphenyl)sulfonyl)-3-(hydroxymethyl)azetidin-3-yl)methoxy)-2-fluorobenzonitrile]"
7,29.3,"N#Cc1ccc(OCC2(CO)CN(S(=O)(=O)c3ccc(F)cc3C#N)C2)cc1F [Compound 104, 4-((1-((2-Cyano-4-fluorophenyl)sulfonyl)-3-(hydroxymethyl)azetidin-3-yl)methoxy)-2-fluorobenzonitrile]"
8,1200,"N#Cc1ccc(OCC2(CO)CN(S(=O)(=O)c3ccc(OC(F)(F)F)cc3Br)C2)cc1F [Compound 105, 4-((1-((2-Bromo-4-(trifluoromethoxy)phenyl)sulfonyl)-3-(hydroxymethyl)azetidin-3-yl)methoxy)-2-fluorobenzonitrile]"
9,145,"COc1ccc(S(=O)(=O)N2CC(CO)(COc3ccc(C#N)c(F)c3)C2)c(C#N)c1 [Compound 106, 4-((1-((2-Cyano-4-methoxyphenyl)sulfonyl)-3-(hydroxymethyl)azetidin-3-yl)methoxy)-2-fluorobenzonitrile]"
10,80,"N#Cc1ccc(OCC2(CO)CN(S(=O)(=O)c3ccc(OC(F)(F)F)cc3C#N)C2)cc1F [Compound 107, 4-((1-((2-Cyano-4-trifluoromethoxyphenyl)sulfonyl)-3-(hydroxymethyl)azetidin-3-yl)methoxy)-2-fluorobenzonitrile]"
11,528,"COc1cc(C#N)c(F)cc1OCC1(CO)CN(S(=O)(=O)c2ccc(Cl)cc2Cl)C1 [Compound 108, 4-((1-((2,4-Dichlorophenyl)sulfonyl)-3-(hydroxymethyl)azetidin-3-yl)methoxy)-2-fluoro-5-methoxybenzonitrile]"
12,940,"COc1cc(C#N)c(F)cc1OCC1(CO)CN(S(=O)(=O)c2ccccc2C#N)C1 [Compound 109, 4-((1-((2-Cyanophenyl)sulfonyl)-3-(hydroxymethyl)azetidin-3-yl)methoxy)-2-fluoro-5-methoxybenzonitrile]"
13,241,"COc1cc(C#N)c(F)cc1OCC1(CO)CN(S(=O)(=O)c2ccc(C)cc2C#N)C1 [Compound 110, 4-((1-((2-Cyano-4-methylphenyl)sulfonyl)-3-(hydroxymethyl)azetidin-3-yl)methoxy)-2-fluoro-5-methoxybenzonitrile]"

# Continued, compound first:
row,Structure (SMILES),IC50 [nM]
1,"N#Cc1ccc(OCC2(CO)CN(S(=O)(=O)c3ccc(Cl)cc3Cl)C2)c(Cl)c1 [Compound 88, 3-Chloro-4-((1-((2,4-dichlorophenyl)sulfonyl)-3-(hydroxymethyl)azetidin-3-yl)methoxy)benzonitrile]",500
2,"N#Cc1cccc(OCC2(CO)CN(S(=O)(=O)c3ccc(Cl)cc3Cl)C2)c1 [Compound 89, 3-((1-((2,4-Dichlorophenyl)sulfonyl)-3-(hydroxymethyl)azetidin-3-yl)methoxy)benzonitrile]",1000 to 3000
3,"COC(=O)c1ccc(OCC2(CO)CN(S(=O)(=O)c3ccc(Cl)cc3Cl)C2)cc1 [Compound 90, Methyl 4-((1-((2,4-dichlorophenyl)sulfonyl)-3-(hydroxymethyl)azetidin-3-yl)methoxy)benzoate]",~5000
4,"O=S(=O)(c1ccc(Cl)cc1Cl)N1CC(CO)(COc2ccncc2)C1 [Compound 91, (1-((2,4-Dichlorophenyl)sulfonyl)-3-((pyridin-4-yloxy)methyl)azetidin-3-yl)methanol]",~5000
5,"Cc1ccc(OCC2(CO)CN(S(=O)(=O)c3ccc(Cl)cc3Cl)C2)cc1 [Compound 92, (1-((2,4-Dichlorophenyl)sulfonyl)-3-((p-tolyloxy)methyl)azetidin-3-yl)methanol]",~5000
6,"NC(=O)c1ccc(OCC2(CO)CN(S(=O)(=O)c3ccc(Cl)cc3Cl)C2)cc1 [Compound 93, 4-((1-((2,4-Dichlorophenyl)sulfonyl)-3-(hydroxymethyl)azetidin-3-yl)methoxy)benzamide]",~5000
7,"O=S(=O)(c1ccc(Cl)cc1Cl)N1CC(CO)(COc2ccnc(Cl)c2)C1 [Compound 94, (3-(((2-Chloropyridin-4-yl)oxy)methyl)-1-((2,4-dichlorophenyl)sulfonyl)azetidin-3-yl)methanol]",~3000
8,"Cc1cc(OCC2(CO)CN(S(=O)(=O)c3ccc(Cl)cc3Cl)C2)ccn1 [Compound 95, (1-((2,4-Dichlorophenyl)sulfonyl)-3-(((2-methylpyridin-4-yl)oxy)methyl)azetidin-3-yl)methanol]",~3000
9,"O=S(=O)(c1ccc(Cl)cc1Cl)N1CC(CO)(COc2cccnc2)C1 [Compound 97, (1-((2,4-Dichlorophenyl)sulfonyl)-3-((pyridin-3-yloxy)methyl)azetidin-3-yl)methanol]",~5000
10,"CCOc1cc(OCC2(COC(=O)c3ccc(Br)cc3)CN(S(=O)(=O)c3ccc(Cl)cc3Cl)C2)ccc1C#N [Compound 99, (3-((4-Cyano-3-ethoxyphenoxy)methyl)-1-((2,4-dichlorophenyl)sulfonyl)azetidin-3-yl)methyl 4-bromobenzoate]",> 1000
11,"N#Cc1ccc(NCC2(CO)CN(S(=O)(=O)c3ccc(Cl)cc3Cl)C2)cc1F [Compound 101, 4-(((1-((2,4-dichlorophenyl)sulfonyl)-3-(hydroxymethyl)azetidin-3-yl)methyl)amino)-2-fluorobenzonitrile]",136
12,"N#Cc1ccc(OCC2(CNC3COC3)CN(S(=O)(=O)c3ccccc3C#N)C2)cc1F [Compound 111, 4-((1-((2-Cyanophenyl)sulfonyl)-3-((oxetan-3-ylamino)methyl)azetidin-3-yl)methoxy)-2-fluorobenzonitrile]",47.6
13,"N#Cc1ccc(OCC2(CN[C@H]3CC[C@H](O)CC3)CN(S(=O)(=O)c3ccccc3C#N)C2)cc1F [Compound 112, 4-((1-((2-Cyanophenyl)sulfonyl)-3-(((trans-4-hydroxycyclohexyl)amino)methyl)azetidin-3-yl)methoxy)-2-fluorobenzonitrile]",0.29

# — patent US20230026696A1, “TRPV4 RECEPTOR LIGANDS” (UNIVERSITY OF UTAH RESEARCH FOUNDATION, priority 2019, published 2023)
